Assay results taken from US20020098186A1, “Use of endothelin inhibitors for treatment or prevention of fibrotic disorders” (priority 1999, published 2002).

Legend:
[1] = Body and organ weights of rats with bile duct occlusion (BDO) or sham operation; assay type: in vivo
Method: (§1) Female adult wistar rats, average weight 206±19 g, underwent the following microsurgical procedure under an operating microscope (OPMI 6-2, Zeiss, Germany) (B. Gerling, M. Becker, J. Waldschmidt, D. Schuppan (1996). J. Hepatol. 25:79-84; G. Boigk, L. Stroedter, H. Herbst H, et al. (1997). Hepatology 26:643-639.): 1. midline abdominal incision following anaesthesia with 100 mg/kg ketamine-hydroochloride (Ketanest®, Parke-Davis, Germany) and 10 mg/kg 5,6-dihydro-2-(2,6-xylidino)-4H-1,3-thiazine-hydrochloride (Rompun®, Bayer, Germany); 2. dissection of the common bile duct, insertion of a teflon catheter (Abbocath -T 26 G, venisystems, U.S.A.) and placement of a distal complete and a proximal incomplete ligature with 5-0 silk (Permahand , Ethicon, Germany); 3. retrograde injection of sodium-amidotrizoate (Ethibloc®, Ethicon Germany) at a dose of 0.02 ml/100 g body weight; 4. removal of the catheter, closure of the proximal ligature, scission of the bile duct between the ligatures and wound closure. After bile duct occlusion (BDO), animals received normal chow (Altromin®, Lage, Germany) and were allowed free access to water. […] The following therapeutic groups were formed: 1. BDO and LU at 80 mg/kg/d for 6 weeks (BDO 80/1-6:n=20); 2. BDO and LU at 80 mg/kg/d from week 4-6 of BDO (BDO 80/4-6:n=20); 3. […]
Early mortality (within 1 h to 3 days) in rats with BDO was due to local infection and amounted to 9%. […] After 6 weeks rats were sacrificed under ketanest(rompun-anaesthesia by puncture of the right ventricle and exsanguination. Heart, liver, spleen and kidneys were weighed, and 1-2 g pieces of the left and the right liver lobes fixed in 4% formalin for histology and hydroxyproline (HYP) determinations.

[2] = Clinical chemical serum parameters in BDO and sham-operated rats; assay type: in vivo, rat; conditions: for ALP / ALT / AST / Bili (total bilirubin) / γGT: serum, mean ± SD
Method: as §1
Standard laboratory parameters were measured by our in-hospital clinical chemical department, using an automated analyser (BM/Hitachi 747). The aminoterminal propeptide of procollagen type III (PIIINP) was determined using a sequential saturation radioimmunoassay based on PIINP from rat, a monospecific rabbit antiserum to rat PIIINP and a goat antiserum to rabbit IgG, using a previously described procedure (B. Gerling, M. Becker, J. Waldschmidt, D. Schuppan (1996). J. Hepatol. 25:79-84; G. Boigk, L. Stroedter, H. Herbst H, et al. (1997). Hepatology 26:643-649; d. Schuppan, J. M. Dumont, K. Y. Kim, et al. (1986). J. Hepatol. 3:27-37.). Inter- and intra-assay coefficients of variation were 12% and 5% for a normal and 4% and 3% for a pathological serum sample, resp.

[3] = system: rat secondary biliary liver fibrosis (BDO); assay: Histological assessment (staging) of liver fibrosis in BDO rats; assay type: in vivo; conditions: Sham (sham operation with LU 80 mg/kg/d 6 weeks)
[4] = system: desmin-positive cells (rat hepatic stellate cells); assay: Desmin staining of liver sections (activated hepatic stellate cells); assay type: in vivo; conditions: LU-treated animals (data not shown)
[5] = BDO/LU 80/1-6: BDO, LU 80 mg/kg/d week 1-6, n = 10
[6] = BDO/LU 80/4-6: BDO, LU 80 mg/kg/d week 4-6, n = 14
[7] = Sham/LU: sham operation, LU 80 mg/kg/d for 6 weeks, n = 10
[8] = BDO/LU 80/1-6 (n = 10): BDO, LU 80 mg/kg/d week 1-6
[9] = BDO/LU 80/4-6 (n = 14): BDO, LU 80 mg/kg/d week 4-6

COc1cc(OC)nc(O[C@H](C(=O)O)C(OC)(c2ccccc2)c2ccccc2)n1 [LU]
B.W. [1, 5]: 293.0 ± 32.89 g | Liver W. [1, 5]: 24.73 ± 4.47 g | Spleen W. [1, 5]: 1.78 ± 0.47 g | B.W. [1, 6]: 259.1 ± 30.2 g | Liver W. [1, 6]: 23.01 ± 5.33 g | Spleen W. [1, 6]: 1.62 ± 0.46 g | B.W. [1, 7]: 305.8 ± 23.40 g | Liver W. [1, 7]: 11.98 ± 1.95 g | Spleen W. [1, 7]: 0.73 ± 0.08 g | Liver and spleen weights ([1]; rats with BDO): reduced liver and spleen weights dose-dependently | Weights of kidneys, heart and lungs ([1]; rats with BDO, high and low dose groups (not shown)): neither nor the low dose groups demonstrated significant differences | Clinical chemical serum parameters (AST, ALT, alkaline phosphatase, gamma glutamyltranspeptidase, total bilirubin, creatinine) ([2]; all groups with BDO): did not differ between all groups with BDO | ALP ([2]; headed BDO/LU 80/1-6 (n = 20)): 256.1 ± 49.6 U/L | ALT ([2]; headed BDO/LU 80/1-6 (n = 20)): 22 ± 8.4 U/L | AST ([2]; headed BDO/LU 80/1-6 (n = 20)): 198 ± 56.7 U/L | Bili (total bilirubin) ([2]; headed BDO/LU 80/1-6 (n = 20)): 189.5 ± 43.2 µmol/L | γGT ([2]; headed BDO/LU 80/1-6 (n = 20)): 15 ± 6.4 U/L | ALP [2, 8]: 230.7 ± 55.7 U/L | ALT [2, 8]: 23.6 ± 10.8 U/L | AST [2, 8]: 160.9 ± 78.5 U/L | Bili (total bilirubin) [2, 8]: 171.3 ± 49.5 µmol/L | γGT [2, 8]: 32.7 ± 24.4 U/L | ALP [2, 9]: 253.1 ± 75.8 U/L | ALT [2, 9]: 40.2 ± 52 U/L | AST [2, 9]: 229 ± 78.5 U/L | Bili (total bilirubin) [2, 9]: 209.9 ± 48.9 µmol/L | γGT [2, 9]: 28.1 ± 26.4 U/L | ALP [2, 7]: 85.3 ± 17.9 U/L | ALT [2, 7]: 21.7 ± 3.3 U/L | AST [2, 7]: 36.4 ± 7.9 U/L | Bili (total bilirubin) [2, 7]: 1.6 ± 0.5 µmol/L | γGT [2, 7]: 0.3 ± 0.5 U/L | Histological assessment of fibrosis: animals at Stage 0 [3]: 10 | Number of desmin-positive cells in liver sections [4]: significantly reduced
